Data from paper PMC10866072, “Design, synthesis, molecular modelling and biological evaluation of novel 6-amino-5-cyano-2-thiopyrimidine derivatives as potent anticancer agents against leukemia and apoptotic inducers” (Journal of Enzyme Inhibition and Medicinal Chemistry, 2024).

Assays:
CAKI-1 = assay type: cell-based; conditions: Homo sapiens, CAKI-1, 48 h, one dose 10^-5 M, 48 h
MDA-MB-435 = assay type: cell-based; conditions: Homo sapiens, one dose 10^-5 M, 48 h, read-out: % growth
PC-3 = assay type: cell-based; conditions: Homo sapiens, one dose 10^-5 M, 48 h
M14 = assay type: cell-based; conditions: Homo sapiens, one dose 10^-5 M, 48 h
RPMI-8226 = assay type: cell-based; conditions: Homo sapiens, one dose 10^-5 M, 48 h
NCI/ADR-RES = assay type: cell-based; conditions: Homo sapiens, one dose 10^-5 M, 48 h
SW-620 = assay type: cell-based; conditions: Homo sapiens, one dose 10^-5 M, 48 h
SK-OV-3 = assay type: cell-based; conditions: Homo sapiens, one dose 10^-5 M, 48 h
HOP-92 = assay type: cell-based; conditions: Homo sapiens, one dose 10^-5 M, 48 h
OVCAR-5 = assay type: cell-based; conditions: Homo sapiens, one dose 10^-5 M, 48 h
OVCAR-4 = assay type: cell-based; conditions: Homo sapiens, one dose 10^-5 M, 48 h
UACC-257 = assay type: cell-based; conditions: Homo sapiens, one dose 10^-5 M, 48 h
SNB-75 = assay type: cell-based; conditions: Homo sapiens, one dose 10^-5 M, 48 h
U251 = assay type: cell-based; conditions: Homo sapiens, U-251, one dose 10^-5 M, 48 h
KM12 = assay type: cell-based; conditions: Homo sapiens, one dose 10^-5 M, 48 h
LOX IMVI = assay type: cell-based; conditions: Homo sapiens, one dose 10^-5 M, 48 h, read-out: % growth
MCF7 = assay type: cell-based; conditions: Homo sapiens, one dose 10^-5 M, 48 h, read-out: % growth
HL-60(TB) = assay type: cell-based; conditions: Homo sapiens, one dose 10^-5 M, 48 h
SK-MEL-2 = assay type: cell-based; conditions: Homo sapiens, one dose 10^-5 M, 48 h
MDA-MB-231/ATCC = assay type: cell-based; conditions: Homo sapiens, one dose 10^-5 M, 48 h
CCRF-CEM = assay type: cell-based; conditions: Homo sapiens, one dose 10^-5 M, 48 h
HS 578T = assay type: cell-based; conditions: Homo sapiens; one dose 10^-5 M, 48 h; HS 578T; read-out: % growth
SN12C = assay type: cell-based, human; conditions: Homo sapiens, one dose 10^-5 M, 48 h
NCI-H522 = assay type: cell-based; conditions: Homo sapiens, one dose 10^-5 M, 48 h
BT-549 = assay type: cell-based; conditions: Homo sapiens, one dose 10^-5 M, 48 h
TK-10 = assay type: cell-based; conditions: Homo sapiens, one dose 10^-5 M, 48 h
SNB-19 = assay type: cell-based; conditions: Homo sapiens, one dose 10^-5 M, 48 h, read-out: % growth
COLO 205 = assay type: cell-based; conditions: Homo sapiens, one dose 10^-5 M, 48 h
OVCAR-3 = assay type: cell-based; conditions: Homo sapiens, one dose 10^-5 M, 48 h
SF-295 = assay type: cell-based; conditions: Homo sapiens, one dose 10^-5 M, 48 h
A549/ATCC = assay type: cell-based; conditions: Homo sapiens, one dose 10^-5 M, 48 h
SF-539 = assay type: cell-based; conditions: Homo sapiens, one dose 10^-5 M, 48 h
HCT-15 = assay type: cell-based; conditions: Homo sapiens, one dose 10^-5 M, 48 h, read-out: % growth
HOP-62 = assay type: cell-based; conditions: Homo sapiens, one dose 10^-5 M, 48 h
A498 = assay type: cell-based; conditions: Homo sapiens, one dose 10^-5 M, 48 h
NCI-H460 = assay type: cell-based; conditions: Homo sapiens, one dose 10^-5 M, 48 h, read-out: % growth
IGROV1 = assay type: cell-based; conditions: Homo sapiens, IGROV-1, one dose 10^-5 M, 48 h, read-out: % growth
MALME-3M = assay type: cell-based; conditions: Homo sapiens, one dose 10^-5 M, 48 h
[1] = test system: full NCI 60 cell lines panel; conditions: for activity at 10 µM: Homo sapiens, 60 cell, 48 h, read-out: Mean % growth; for activity on all 60 cancer cell lines tested (in words): one dose
EKVX = assay type: cell-based; conditions: Homo sapiens, one dose 10^-5 M, 48 h
SK-MEL-5 = assay type: cell-based; conditions: Homo sapiens, one dose 10^-5 M, 48 h, read-out: % growth
UACC-62 = assay type: cell-based; conditions: Homo sapiens, one dose 10^-5 M, 48 h
ACHN = assay type: cell-based; conditions: Homo sapiens, one dose 10^-5 M, 48 h
HCT-116 = assay type: cell-based; conditions: Homo sapiens, one dose 10^-5 M, 48 h, read-out: % growth
MDA-MB-468 = assay type: cell-based; conditions: Homo sapiens, one dose 10^-5 M, 48 h
SR = assay type: cell-based; conditions: Homo sapiens, one dose 10^-5 M, 48 h
DU-145 = assay type: cell-based; conditions: Homo sapiens, one dose 10^-5 M, 48 h
MOLT-4 = assay type: cell-based; conditions: Homo sapiens, one dose 10^-5 M, 48 h, read-out: % growth
UO-31 = assay type: cell-based; conditions: Homo sapiens, UO-31, 48 h, one dose 10^-5 M, 48 h
786-0 = assay type: cell-based; conditions: Homo sapiens, one dose 10^-5 M, 48 h
SK-MEL-28 = assay type: cell-based; conditions: Homo sapiens, one dose 10^-5 M, 48 h
NCI-H226 = assay type: cell-based; conditions: Homo sapiens, one dose 10^-5 M, 48 h
K-562 = assay type: cell-based; conditions: Homo sapiens, K562, one dose 10^-5 M, 48 h
SF-268 = assay type: cell-based; conditions: Homo sapiens, one dose 10^-5 M, 48 h, read-out: % growth
T-47D = assay type: cell-based; conditions: Homo sapiens, T47D, one dose 10^-5 M, 48 h, read-out: % growth
NCI-H23 = assay type: cell-based; conditions: Homo sapiens, one dose 10^-5 M, 48 h, read-out: % growth
HT29 = assay type: cell-based; conditions: Homo sapiens, HT-29, one dose 10^-5 M, 48 h
OVCAR-8 = assay type: cell-based; conditions: Homo sapiens, one dose 10^-5 M, 48 h
RXF 393 = assay type: cell-based; conditions: Homo sapiens, RXF 393, 48 h, one dose 10^-5 M, 48 h, read-out: % growth
HCC-2998 = assay type: cell-based; conditions: Homo sapiens, one dose 10^-5 M, 48 h

CN(C)c1ccc(-c2cc([N+](=O)[O-])ccc2C=NNC(=N)c2cnc(S)nc2N)cc1 [Compound 4c, 4-amino-N'-[6-[4-(dimethylamino)phenyl]-(4-nitrophenyl)methylene]-2-mercapto pyrimidine-5-carboximidohydrazide]
% growth at 10 µM (CAKI-1): 99.6% | activity at 10 µM (MDA-MB-435): 102% | percent cell growth at 10 µM (PC-3): 94.1% | % growth at 10 µM (M14): 110% | % growth at 10 µM (RPMI-8226): 97% | cell growth percent at 10 µM (NCI/ADR-RES): 102% | % growth at 10 µM (SW-620): 109% | % growth at 10 µM (SK-OV-3): 95.7% | % growth at 10 µM (HOP-92): 118% | percent cell growth at 10 µM (OVCAR-5): 110% | % growth at 10 µM (OVCAR-4): 101% | percent cell growth at 10 µM (UACC-257): 106% | % growth at 10 µM (SNB-75): 100% | % growth at 10 µM (U251): 106% | % growth at 10 µM (KM12): 100% | activity at 10 µM (LOX IMVI): 99.3% | activity at 10 µM (MCF7): 92% | % growth at 10 µM (HL-60(TB)): 96.4% | % growth at 10 µM (SK-MEL-2): 114% | % growth at 10 µM (MDA-MB-231/ATCC): 111% | % cell growth at 10 µM (CCRF-CEM): 84.4% | activity at 10 µM (HS 578T): 95.2% | % growth at 10 µM (SN12C): 99.5% | % growth at 10 µM (NCI-H522): 96% | % cell growth at 10 µM (BT-549): 112% | % cell growth at 10 µM (TK-10): 102% | activity at 10 µM (SNB-19): 97.2% | % growth at 10 µM (COLO 205): 127% | % growth at 10 µM (OVCAR-3): 106% | % cell growth at 10 µM (SF-295): 92.4% | % growth at 10 µM (A549/ATCC): 104% | % growth at 10 µM (SF-539): 98.8% | activity at 10 µM (HCT-15): 98.5% | % growth at 10 µM (HOP-62): 102% | % growth at 10 µM (A498): 124% | activity at 10 µM (NCI-H460): 108% | activity at 10 µM (IGROV1): 102% | % growth at 10 µM (MALME-3M): 108% | activity at 10 µM [1]: 103% | activity on all 60 cancer cell lines tested (in words) [1]: weak activity | % cell growth at 10 µM (EKVX): 100% | activity at 10 µM (SK-MEL-5): 103% | % growth at 10 µM (UACC-62): 100% | % growth at 10 µM (ACHN): 103% | activity at 10 µM (HCT-116): 106% | percent cell growth at 10 µM (MDA-MB-468): 108% | percent cell growth at 10 µM (SR): 107% | % growth at 10 µM (DU-145): 108% | activity at 10 µM (MOLT-4): 109% | % cell growth at 10 µM (UO-31): 75.4% | % growth at 10 µM (786-0): 95.7% | % cell growth at 10 µM (SK-MEL-28): 112% | % growth at 10 µM (NCI-H226): 112% | % growth at 10 µM (K-562): 104% | activity at 10 µM (SF-268): 87.8% | activity at 10 µM (T-47D): 101% | activity at 10 µM (NCI-H23): 104% | % growth at 10 µM (HT29): 109% | % growth of cells at 10 µM (OVCAR-8): 95.8%

Nc1nc(S)nc(-c2ccc(Cl)cc2)c1-c1ncn[nH]1 [Compound 5b, 4-Amino-6–(4-chlorophenyl)-5-(1H-1,2,4-triazol-5-yl)pyrimidine-2-thiol]
% growth at 10 µM (CAKI-1): 82.8% | activity at 10 µM (MDA-MB-435): 103% | percent cell growth at 10 µM (PC-3): 85.5% | % growth at 10 µM (M14): 98.9% | % growth at 10 µM (RPMI-8226): 98.6% | % growth at 10 µM (SW-620): 103% | % growth at 10 µM (SK-OV-3): 85.5% | % growth at 10 µM (HOP-92): 91.7% | percent cell growth at 10 µM (OVCAR-5): 96.7% | % growth at 10 µM (OVCAR-4): 112% | percent cell growth at 10 µM (UACC-257): 112% | % growth at 10 µM (SNB-75): 78.7% | % growth at 10 µM (U251): 98.8% | % growth at 10 µM (KM12): 102% | activity at 10 µM (LOX IMVI): 99.2% | activity at 10 µM (MCF7): 93.8% | % growth at 10 µM (HL-60(TB)): 108% | % growth at 10 µM (SK-MEL-2): 108% | % growth at 10 µM (MDA-MB-231/ATCC): 93.7% | % cell growth at 10 µM (CCRF-CEM): 97.9% | activity at 10 µM (HS 578T): 111% | % growth at 10 µM (SN12C): 93.5% | % growth at 10 µM (NCI-H522): 85.5% | % cell growth at 10 µM (TK-10): 109% | activity at 10 µM (SNB-19): 91% | % growth at 10 µM (OVCAR-3): 108% | % cell growth at 10 µM (SF-295): 93.7% | % growth at 10 µM (A549/ATCC): 110% | % growth at 10 µM (SF-539): 92.5% | activity at 10 µM (HCT-15): 103% | % growth at 10 µM (HOP-62): 88.6% | % growth at 10 µM (A498): 109% | activity at 10 µM (NCI-H460): 110% | activity at 10 µM (IGROV1): 98.7% | % growth at 10 µM (MALME-3M): 92.6% | activity at 10 µM [1]: 98.4% | activity on all 60 cancer cell lines tested (in words) [1]: weak activity | % cell growth at 10 µM (EKVX): 98% | activity at 10 µM (SK-MEL-5): 98.7% | % growth at 10 µM (UACC-62): 95.9% | % growth at 10 µM (ACHN): 96.9% | activity at 10 µM (HCT-116): 92.1% | percent cell growth at 10 µM (MDA-MB-468): 101% | percent cell growth at 10 µM (SR): 96.6% | % growth at 10 µM (DU-145): 109% | activity at 10 µM (RXF 393): 115% | activity at 10 µM (MOLT-4): 108% | % growth at 10 µM (HCC-2998): 94.8% | % cell growth at 10 µM (UO-31): 74.6% | % growth at 10 µM (786-0): 108% | % cell growth at 10 µM (SK-MEL-28): 111% | % growth at 10 µM (NCI-H226): 92.7% | % growth at 10 µM (K-562): 103% | activity at 10 µM (SF-268): 96.7% | activity at 10 µM (T-47D): 86.4% | activity at 10 µM (NCI-H23): 97% | % growth at 10 µM (HT29): 95.4% | % growth of cells at 10 µM (OVCAR-8): 94.8%
